Structures are written as SMILES. pEC50: −log10 of the molar value.

Sequence of Cationic amino acid transporter 3 (Q8WY07 whole entry): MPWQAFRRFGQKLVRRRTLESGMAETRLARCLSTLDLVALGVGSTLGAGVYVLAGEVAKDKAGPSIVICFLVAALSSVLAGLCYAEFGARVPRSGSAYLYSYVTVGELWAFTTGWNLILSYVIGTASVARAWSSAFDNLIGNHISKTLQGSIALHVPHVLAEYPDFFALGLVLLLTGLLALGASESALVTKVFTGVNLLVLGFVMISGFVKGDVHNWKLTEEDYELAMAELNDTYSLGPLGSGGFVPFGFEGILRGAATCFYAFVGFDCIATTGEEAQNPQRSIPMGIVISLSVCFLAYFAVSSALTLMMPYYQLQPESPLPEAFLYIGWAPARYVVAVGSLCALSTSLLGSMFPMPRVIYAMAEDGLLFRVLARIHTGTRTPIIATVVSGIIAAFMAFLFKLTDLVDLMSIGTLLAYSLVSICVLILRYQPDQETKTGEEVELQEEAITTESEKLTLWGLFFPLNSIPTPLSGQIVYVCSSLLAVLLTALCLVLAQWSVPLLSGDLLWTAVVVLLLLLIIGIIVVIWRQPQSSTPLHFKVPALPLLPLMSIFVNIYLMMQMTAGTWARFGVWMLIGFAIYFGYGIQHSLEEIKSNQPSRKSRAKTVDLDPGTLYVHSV

This experiment concerns the target Cationic amino acid transporter 3 (Homo sapiens, UniProt Q8WY07). Description: Substrate uptake by the Cationic Amino Acid Transporter (CAT-3, SLC7A3) as assessed by the fluorescent FLIPR membrane potential dye in HEK-293 JumpIN-SLC7A3 cells (PubChem AID: 1745863). In kind it is functional, cell-based, HEK293.
As to `NCCC[C@H](N)C(=O)O`, the pEC50 (as a rule, −log10 of the EC50, conventionally taken in molar units) was 3.63.
The value for `N=C(N)NCCC[C@H](N)C(=O)O` [ARGININE] was 3.55; that for `NCCCC[C@H](N)C(=O)O` [LYSINE] was 3.80.

(Values after ChEMBL document CHEMBL5209590, “Membrane potential based transport assay for SLC7A3 using HEK293 JumpIn SLC7A3 OE cells” (2022).)
